Calls of active or inactive are those of the source. The calls are words filed in the database; no cut-off is given here.
Key:
[1] = Half life in brain of Sprague-Dawley CD rat at 5 mg/kg, sc administered as single dose measured over 1 to 168 hrs post dose by LC/MS-MS method; format: ADME, organism-based
[2] = molecular target: Delta-type opioid receptor (Homo sapiens) (UniProt P41143); test: Agonist activity at human delta-opioid receptor expressed in CHO cell membranes assessed as stimulation of [35S]GTPgammaS binding at 10 uM incubated for 60 mins by scintillation counting method; format: functional
Sequence of Delta-type opioid receptor (Homo sapiens) (P41143 whole entry): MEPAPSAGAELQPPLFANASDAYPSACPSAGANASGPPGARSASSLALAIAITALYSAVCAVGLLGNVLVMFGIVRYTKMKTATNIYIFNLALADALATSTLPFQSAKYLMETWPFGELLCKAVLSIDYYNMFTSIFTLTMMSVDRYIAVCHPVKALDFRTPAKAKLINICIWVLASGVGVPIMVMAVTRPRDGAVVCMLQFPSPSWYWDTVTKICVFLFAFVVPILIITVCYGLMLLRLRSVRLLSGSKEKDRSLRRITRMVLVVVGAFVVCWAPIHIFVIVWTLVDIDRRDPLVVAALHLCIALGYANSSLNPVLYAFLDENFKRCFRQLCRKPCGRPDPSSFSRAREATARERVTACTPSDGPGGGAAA

[3] = Drug level in plasma of Sprague-Dawley CD rat at 5 mg/kg, sc administered as single dose measured after 168 hrs post dose by LC/MS-MS method; format: ADME, organism-based; conditions: in vivo
[4] = Ratio of AUClast in brain to plasma of Sprague-Dawley CD rat at 5 mg/kg, sc administered as single dose measured over 1 to 168 hrs post dose by LC/MS-MS method; format: ADME, organism-based; conditions: brain
[5] = Clearance in plasma of Sprague-Dawley CD rat at 5 mg/kg, sc administered as single dose measured over 1 to 168 hrs post dose by LC/MS-MS method; format: ADME, organism-based
[6] = molecular target: Delta-type opioid receptor (Homo sapiens) (UniProt P41143); test: Antagonist activity at human delta-opioid receptor expressed in CHO cell membranes assessed as inhibition of DPDPE-induced [35S]GTPgammaS binding incubated for 60 mins by scintillation counting method; format: functional
[7] = Total AUC in brain of Sprague-Dawley CD rat at 5 mg/kg, sc administered as single dose measured over 1 to 168 hrs post dose by LC/MS-MS method; format: ADME, organism-based; set-up: dose 5 mg/kg, time AUCmax, route subcutaneous; conditions: in vivo
in vivo [8] = conditions: Sprague-Dawley CD, rat, brain, sc, 5 mg/kg
[9] = AUClast in brain of Sprague-Dawley CD rat at 5 mg/kg, sc administered as single dose measured over 1 to 168 hrs post dose by LC/MS-MS method; format: ADME, organism-based; conditions: in vivo
[10] = molecular target: Mu-type opioid receptor (Homo sapiens) (UniProt P35372); test: Agonist activity at human mu-opioid receptor expressed in CHO cell membranes assessed as stimulation of [35S]GTPgammaS binding at 10 uM incubated for 60 mins by scintillation counting method; format: functional
Sequence of Mu-type opioid receptor (Homo sapiens) (P35372 whole entry): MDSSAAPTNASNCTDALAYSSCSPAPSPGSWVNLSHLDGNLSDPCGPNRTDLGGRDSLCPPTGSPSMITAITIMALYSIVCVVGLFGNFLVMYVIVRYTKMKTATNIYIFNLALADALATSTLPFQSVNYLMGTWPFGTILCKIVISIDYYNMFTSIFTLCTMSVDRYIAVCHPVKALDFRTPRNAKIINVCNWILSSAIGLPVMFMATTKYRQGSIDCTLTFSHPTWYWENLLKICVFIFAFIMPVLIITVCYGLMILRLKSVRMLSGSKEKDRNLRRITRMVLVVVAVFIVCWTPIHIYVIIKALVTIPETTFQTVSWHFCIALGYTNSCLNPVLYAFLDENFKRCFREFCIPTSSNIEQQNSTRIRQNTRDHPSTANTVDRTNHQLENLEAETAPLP

in vivo [11] = conditions: Sprague-Dawley CD, rat, plasma, sc, 5 mg/kg
[12] = Half life in plasma of Sprague-Dawley CD rat at 5 mg/kg, sc administered as single dose measured over 1 to 168 hrs post dose by LC/MS-MS method; format: ADME, organism-based
[13] = Total AUC in plasma of Sprague-Dawley CD rat at 5 mg/kg, sc administered as single dose measured over 1 to 168 hrs post dose by LC/MS-MS method; format: ADME, organism-based; set-up: dose 5 mg/kg, route subcutaneous, time AUCmax
[14] = molecular target: Kappa-type opioid receptor (Homo sapiens) (UniProt P41145); test: Agonist activity at human kappa-opioid receptor expressed in CHO cell membranes assessed as stimulation of [35S]GTPgammaS binding at 10 uM incubated for 60 mins by scintillation counting method; format: functional
Sequence of Kappa-type opioid receptor (Homo sapiens) (P41145 whole entry): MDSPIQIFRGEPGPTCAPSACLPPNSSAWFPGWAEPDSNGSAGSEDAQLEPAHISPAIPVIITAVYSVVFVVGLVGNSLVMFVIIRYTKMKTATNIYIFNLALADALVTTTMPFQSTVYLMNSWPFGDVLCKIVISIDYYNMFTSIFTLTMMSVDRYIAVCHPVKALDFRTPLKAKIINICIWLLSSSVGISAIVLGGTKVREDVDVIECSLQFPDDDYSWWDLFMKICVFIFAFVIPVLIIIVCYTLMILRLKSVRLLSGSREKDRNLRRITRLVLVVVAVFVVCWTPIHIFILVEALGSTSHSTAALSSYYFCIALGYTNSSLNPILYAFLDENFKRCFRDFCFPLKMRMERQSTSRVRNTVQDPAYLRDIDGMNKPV

[15] = Drug level in brain of Sprague-Dawley CD rat at 5 mg/kg, sc administered as single dose measured after 168 hrs post dose by LC/MS-MS method; format: ADME, organism-based; conditions: in vivo
[16] = AUClast in plasma of Sprague-Dawley CD rat at 5 mg/kg, sc administered as single dose measured over 1 to 168 hrs post dose by LC/MS-MS method; format: ADME, organism-based; set-up: dose 5 mg/kg, route subcutaneous, time 0 - last

Question: For `CC1CCN(C[C@@H](NC(=O)[C@H]2Cc3ccc(O)cc3CN2)C(C)C)CC1`, which half-life [1] is on record?
Answer: 57.2 h

Question: What about the Activity [2] of the same compound?
Answer: inactive

Question: And the Drug uptake [3]?
Answer: Active

Question: What about the BPR [4] of the same compound?
Answer: 10.07

Question: What about the CL/F [5] of the same compound?
Answer: 43.8 mL/min/kg

Question: And the Ke [6]?
Answer: > 3000 nM

Question: What about the AUC [7] of the same compound?
Answer: 21400 ng·h/g

Question: What about the Tmax (in vivo [8]) of the same compound?
Answer: 4 h

Question: What about the AUClast [9] of the same compound?
Answer: 18765 ng·h/g

Question: What about the Activity [10] of the same compound?
Answer: inactive

Question: What about the Tmax (in vivo [11]) of the same compound?
Answer: 1 h

Question: What about the half-life [12] of the same compound?
Answer: 30.7 h

Question: What about the AUC [13] of the same compound?
Answer: 1900 ng·h/mL

Question: And the Activity [14]?
Answer: inactive

Question: And the Drug uptake [15]?
Answer: Active

Question: And the AUC(0-t) [16]?
Answer: 1860 ng·h/mL
